From patent publication US20240238305A1, “FORMULATIONS OF 3-((3-(4-(2-(ISOBUTYLSULFONYL)PHENOXY)-3-(TRIFLUOROMETHYL)PHENYL)-1,2,4-OXADIAZOL-5-YL)METHYL)-5,5-DIMETHYL-1-(2-MORPHOLINOETHYL)IMIDAZOLIDINE-2,4-DIONE” (Novartis AG, priority 2021, published 2024)

Key:
SCD1 = assay: Measurement of SCD1 expression in SZ95-SCD1-HiBit cells (HiBiT assay); type: cell-based, human
Method: SCD1 expression levels in SZ95 cells were quantitated using the HiBiT system (Promega) in which a small peptide sequence (SmBiT) with a larger protein (LgBiT) reconstitutes luciferase activity and can generate a luminescent signal used for quantitation. […] The gRNA targeting sequence used was […] (SEQ ID NO: 3) and the SCD1 insertion oligonucleotide encoding the SmBiT sequence was:
SZ95-SCD1-HiBit cells were seeded in 384-well cell culture white plates at a density of 3000 cells/[…]. Water was added to edge wells to avoid evaporation. Cells were incubated in a humidified incubator with 5% CO2 at 37° C. overnight. Tested compounds were diluted at a ratio of 1:3 in DMSO using an Agilent BRAVO Automated Liquid Handling Platform and, after further serial dilutions, added to cells at final concentrations starting from 18 μM. 2-(3-(3-((2-chloro-3-(trifluoromethyl)benzyl)(2,2-diphenylethyl)amino)propoxy)phenyl)acetic acid was used as a reference compound in each plate. Cells in the assay plate were incubated in a humidified incubator with 5% CO2 at 37° C. for 48h.
The assay plates were removed from the incubator and allowed to equilibrate to room temperature. […] Plates were placed on an orbital shaker at a speed of 300-600 rpm for 10 min at room temperature, and read on an EnVision Plate Reader using luminescence detection with a 1 second read time. […]

SZ95 sebocytes = assay: Sentinel Lipid Assay (SLA), global desaturation index; type: cell-based, human
Method: The sentinel lipid assay was used quantify the change in the global desaturation index in SZ95 sebocytes upon administration of Compound 1. The assay measures a smaller subset of lipid analytes in meibum (termed “sentinel lipids”) which would model the global changes the population of both saturated and desaturated lipids in the cells. In order to define this smaller subset of lipids, a complete lipid profile was recorded on dose response curves (eight levels from 4 nM to 10 uM) of Compound 1. […]
A medium throughput assay was created using this reduced set of sentinel lipids. […] Lipids were extracted from the cells using a 1:1 mixture of methylene chloride/methanol containing 10 nM of deuterated standards of triglycerides, which are used as internal standards for quantitating the lipid abundance. […] The abundance of the sentinel lipids and the internal standards are measured using multiple reaction monitor mode (MRM) on a triple quadrupole mass spectrometer. […] In order to compare compounds from multiple batches with one another, the measure raw desaturation index was normalized by dividing it by the desaturation index of the DMSO dosed cells, and all data was assessed as the fraction by which the compound increases the desaturation index above 1. […]

[1] = normalized to reference compound Amax of 100%

Structure (SMILES): O=C(O)Cc1cccc(OCCCN(Cc2cccc(C(F)(F)F)c2Cl)CC(c2ccccc2)c2ccccc2)c1 [Reference, 2-(3-(3-((2-chloro-3-(trifluoromethyl)benzyl)(2,2-diphenylethyl)amino)propoxy)phenyl)acetic acid]
- HiBit Amax (SCD1; SZ95-SCD1-HiBit cells, 48h, compared to reference compound): 95.1
- HiBit Normalized Amax (SCD1; [1]): 100.0%
- SLA Amax (SZ95 sebocytes; SZ95 cells, 72h, compared to reference compound): 96.0
- SLA Normalized Amax (SZ95 sebocytes; [1]): 100.0%
